Tests used:
Assay type in all cases: physicochemical
[1] = Lubiprostone-excipient contact stability study (Example 1A); conditions: excipient:lubiprostone approx 50:50; 55° C. 10 days; HPLC
Description: Test samples were prepared for the study in approximately 50:50 proportion using various excipients and lubiprostone drug. These prepared mixtures were then placed on accelerated stress stability conditions at 55° C. for 10 days. After 10 days, these samples were analyzed by a suitable HPLC method to determine assay (the amount of remaining Lubiprostone) and impurities generated due to degradation of lubiprostone.

[2] = Lubiprostone-excipient contact stability study, solid solution (Example 1B); conditions: for % of the initial: 55° C. 10 d, remaining lubiprostone by HPLC
Description: Additional test samples were prepared for the study by admixing various excipients and lubiprostone drug in ratios of about 50:50 and about 99:1. Solid solutions were prepared by mixing lubiprostone/MeCN and Excipient/MeCN, combining these mixtures and then removing the solvent by evaporation. The prepared mixtures were then placed under accelerated stress stability conditions at 55° C. for 10 days. After 10 days, these samples were analyzed by HPLC method to determine the amount of remaining lubiprostone and impurities generated as a result of the degradation of lubiprostone.

[3] = Lubiprostone-excipient contact stability study, mechanical mixing of powder (Example 1C); conditions: for % of the initial: 55° C. 10 d, remaining lubiprostone by HPLC
Description: Test samples were prepared by direct (mechanical) mixing of various excipients and lubiprostone drug in approximately 50:50 and 99:1 ratios. The mechanical mixing of lubiprostone and excipients was conduct by admixing them using a conventional mortar. The prepared mixtures were then placed under accelerated stress stability conditions at 55° C. for 10 days. After 10 days, these samples were analyzed by HPLC to determine the amount of remaining lubiprostone and impurities generated as a result of the degradation of lubiprostone.

[4] = Mechanical mixing of powder 50:50
[5] = Mechanical mixing of powder 99:1

In the case of `CCCCC(F)(F)[C@@]1(O)CC[C@H]2[C@@H](CC(=O)[C@@H]2CCCCCCC(=O)O)O1` [Lubiprostone, (−)-7-[(2R,4aR,5R,7aR)-2-(1,1-difluoropentyl)-2-hydroxy-6-oxooctahydrocyclopenta[b]pyran-5-yl]heptanoic acid], the “Assay (% of initial)” value [1] is reported as 42.3%, the “Total Impurities” value [1] is reported as 59.0% and the “55° C. 10 d Impurities” value ([2]; Solid solution 50:50) is reported as 33.5. For the same molecule, the “% of the initial” value ([2]; Solid solution 50:50) was 44.4%, the “55° C. 10 d Impurities” value ([2]; Solid solution 99:1) was 35.5 and the “% of the initial” value ([2]; Solid solution 99:1) was 44.4%. For the same molecule, the “55° C. 10 d Impurities” value [3, 4] was 24.5, the “% of the initial” value [3, 4] was 55.6% and the “55° C. 10 d Impurities” value [3, 5] was 24.5. The “% of the initial” value [3, 5] was 55.6%.

Source: patent US11534404B2, “Multilayer beads for pharmaceutical use” (Sucampo AG, priority 2016, dated 2022)
